Assays:
[1] = tested on: RGS1 mRNA in naive mouse microglia; test: Naive primary mouse microglia, RGS1 quantitative Real time PCR; format: cell-based; conditions: 2.5 μM, 6 and 24 hours
Method: Primary mouse microglia were prepared from postnatal mice as described above, and were treated with 2.5 μM of the BTKi inhibitor for 6 and 24 hours. RNA was isolated and was analyzed by quantitative Real time PCR (Taqman, Thermo Fisher).

[2] = tested on: RGS1 and BTK-dependent gene signature in primary mouse microglial cells; conditions: 2.5 μM, IgG 50 μg/mL, 24 h, FPKM
Source text: Primary cultures of microglia were obtained from brains of C57BL/6 postnatal mice. The mice were anesthetized with CO2 and subsequently decapitated with sterilized scissors. Brains were harvested and meninges were removed. The brains were placed in ice cold complete DMEM/F12 medium and kept on ice until processing.
The brains were removed from the medium by filtering through a 40 μm cell strainer. […] The dissociation reaction was quenched with an equal volume of complete DMEM/F12. The tissue was centrifuged at 300×g for 7 minutes. The tissue pellet was washed 3 times with complete DMEM/F12, centrifuged at 300×g for 7 minutes. After the final wash, tissue pellet was re-suspended in complete DMEM/F12 (˜1 mL/brain), triturated until no chunks are visible, then filtered through a 70 μm cell strainer. […]
The single cell suspensions were filtered through 70 μm cell strainers, centrifuged at 200×g for 6 minutes, and re-suspended at 1×10^8 cells/mL in separation media. […] After the last wash, the labeled CD11b+ microglia cells were resuspended in serum free NbActiv1 media, counted and re-suspended at the desired concentration. […]
Analysis of the RNASeq library data was conducted within Omicsoft's Array Studio platform following a standard RNAseq protocol. In general, the sequencing reads were quality checked and the samples were mapped to the mouse mm10 reference genome using the ENSEMBL.R89 gene model. […]

CD19+ B-cell counts = test: Phase 1 absolute CD19+ B-cell counts
Source text: Dose regimen: The dose range chosen for this study is informed by several assessments.

[3] = Pharmacokinetics in RMS patients, fed versus fasting status; format: in vivo, human; conditions: RMS patients of the Phase 2b study
Method: An additional PK sample is collected 3 hours post-dose (±0.5 hour) at visits during Weeks 4 and 12 for all participants in both cohorts. Data of the most recent meal prior to PK sampling are noted in the eCRF.
Additional PK parameters such as Cmax, […], and AUC at steady state are estimated using a population PK approach.
Samples from the two groups were obtained and anaylzed to evaluate pharmacokinetics parameters as described in Example 1.10 above.

RGS1 mRNA in brain = test: In vivo mouse study, brain RGS1 Real-time PCR; conditions: naive mice, oral, once a day for 5 days, 0.6, 6, and 24 mg/kg
Method: Mice were sacrificed on day 5, 1 h post-final dose, and PBS perfused before brain was isolated. RNA was isolated from brain using the Rneasy Lipid tissue RNA isolation kid (Qiagen). RGS1 was quantified using Real-time PCR and Taqman probe (FIG. 6; one-way ANOVA, **p<0.01).

[4] = tested on: participants with relapsing multiple sclerosis (RMS); test: Phase 2b dose-finding study in RMS: brain MRI lesion counts; conditions: for New Gd-enhancing T1-hyperintense lesions: patients with 0 lesions, % / New Gd-enhancing T1-hyperintense lesions: patients with 1 lesion, % / New Gd-enhancing T1-hyperintense lesions: patients with 2 lesions, % / New Gd-enhancing T1-hyperintense lesions: patients with >=3 lesions, % / New or enlarging T2 lesions: patients with 0 lesions, % / New or enlarging T2 lesions: patients with 1 lesion, % / New or enlarging T2 lesions: patients with 2 lesions, % / New or enlarging T2 lesions: patients with >=3 lesions, % / Total Gd-enhancing T1-hyperintense lesions: patients with 0 lesions, % / Total Gd-enhancing T1-hyperintense lesions: patients with 1 lesion, % / Total Gd-enhancing T1-hyperintense lesions: patients with 2 lesions, % / Total Gd-enhancing T1-hyperintense lesions: patients with >=3 lesions, %: after 12 weeks
Method: People diagnosed with RMS are eligible for enrollment as long as they meet all inclusion and no exclusion criteria.
Cranial (brain) MRI with and without Gd contrast is performed. Basic MRIs are performed for all participants at all study sites and consist of T2- and T1-weighted sequences without and with Gd contrast.
New T1 Gd-enhancing hyperintense and new and enlarging T2 lesions are evaluated at each visit as per the SoA (Table 1), comparing lesion count to that from the previous MRI scan. Unless specified otherwise, the baseline brain MRI is used as the reference to assess all MRI-derived endpoints. The baseline MRI is the last MRI performed before the randomization visit. Standardized endpoint evaluation is assured by central review of brain MRI scans. Blinded central review is performed for all MRI-derived endpoints. Magnetic resonance imaging reviewers are blinded to treatment assignments and to other participant data.
The first step of this procedure tests for an efficacy signal (compared to the null hypothesis of a flat, no dose-response curve) in a procedure that controls the type 1 error. […] The second step is the Dose estimation of the dose-response curve, provided that an efficacy signal is established in the first step.
The 4-week post-randomization placebo data from Cohort 2 (i.e., Week 4 data from Cohort 2) is utilized as the placebo data at Week 12 in analysis, under the assumption of a constant rate of Gd-enhancing T1-hyperintense lesion formation if participants would be receiving placebo over 12 weeks. Participants in Cohort 2 contribute to the placebo data (at Week 4) as well as the data for 4 BTK inhibitor doses (at Week 16). […] If step 1 yields significant results, the best fitting model from the 6 predefined candidate models is chosen using the generalized Akaike information criterion (AIC).
The first step of this procedure tested for an efficacy signal (compared to the null hypothesis of a flat, no dose-response curve) in a procedure that controls the type 1 error.
The MRI assessments were excluded from the analyses if the participant was receiving systemic corticosteroids within the 30 days prior to the MRI assessment date. The 4-week post-randomization placebo data from Cohort 2 (i.e., Week 4 data from Cohort 2) was utilized as the placebo data at Week 12 in analysis under the assumption of a constant rate of Gd-enhancing T1-hyperintense lesion formation if participants were to receive placebo over 12 weeks. Participants in Cohort 2 contributed to the placebo data (at Week 4) as well as the data for 4 BTK inhibitor doses (at Week 16). The 4-week placebo run-out data from Cohort 1 was not included in the analysis. […] Test statistics and adjusted p-values were provided for all 6 candidate models.
For each secondary endpoint, a similar negative binomial model and the MCP-Mod procedure were used. As it is reasonable to assume a constant rate of lesion formation over 12 weeks under placebo treatment, the same approach as that utilized for the primary endpoint was used, i.e., using the Week 4 data in Cohort 2 as the Week 12 placebo data while accounting for within-participant correlation. Descriptive summary statistics over time were provided for each of the 4 BTK inhibitor dose groups.

CYP2C8 = target: T1, CYP2C8 (Homo sapiens, UniProt P10632); test: Preclinical drug metabolism studies, CYP2C8; format: in vitro ADME
T1 sequence (P10632 1-490): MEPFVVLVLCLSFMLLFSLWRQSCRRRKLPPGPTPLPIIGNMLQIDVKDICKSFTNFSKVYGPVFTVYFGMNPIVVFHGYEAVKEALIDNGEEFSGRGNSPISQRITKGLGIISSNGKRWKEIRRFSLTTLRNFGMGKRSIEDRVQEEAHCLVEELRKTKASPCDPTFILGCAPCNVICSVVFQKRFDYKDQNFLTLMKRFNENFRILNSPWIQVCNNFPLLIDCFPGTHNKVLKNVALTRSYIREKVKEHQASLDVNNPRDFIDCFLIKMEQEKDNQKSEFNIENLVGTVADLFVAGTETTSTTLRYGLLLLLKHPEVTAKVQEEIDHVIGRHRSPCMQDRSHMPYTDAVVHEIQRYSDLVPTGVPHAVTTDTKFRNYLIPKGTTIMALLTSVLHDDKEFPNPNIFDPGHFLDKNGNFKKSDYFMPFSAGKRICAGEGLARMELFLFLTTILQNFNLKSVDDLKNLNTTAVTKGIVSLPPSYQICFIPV
Source text: (§1) See Table 12 for the list of drugs not to be used.

CYP3A = test: Preclinical drug metabolism studies, CYP3A; format: in vitro ADME
Source text: as §1

Structure (SMILES): C=CC(=O)N1CCC[C@@H](n2c(=O)n(-c3ccc(Oc4ccccc4)cc3)c3c(N)nccc32)C1 [the BTK inhibitor, (R)-1-(1-acryloylpiperidin-3-yl)-4-amino-3-(4-phenoxyphenyl)-1H-imidazo[4,5-c]pyridin-2(3H)-one]
- RGS1 mRNA level in naive mouse microglia [1]: reduced
- RGS1 mRNA expression upregulated with IgG treatment [2]: blocked
- dose at which the dose-response relationship for the CD19+ B-cell increase is maximal (CD19+ B-cell counts): approximately 30 mg once daily
- median AUC, fed state compared to fasted state [3]: substantially increased
- RGS1 mRNA expression in brain (RGS1 mRNA in brain): reduction of RGS1 mRNA expression was observed
- New Gd-enhancing T1-hyperintense lesions: patients with 0 lesions, % ([4]; 5 mg daily): (71.0) %
- New Gd-enhancing T1-hyperintense lesions: patients with 1 lesion, % ([4]; 5 mg daily): (6.5) %
- New Gd-enhancing T1-hyperintense lesions: patients with 2 lesions, % ([4]; 5 mg daily): (9.7) %
- New Gd-enhancing T1-hyperintense lesions: patients with >=3 lesions, % ([4]; 5 mg daily): (12.9) %
- New or enlarging T2 lesions: patients with 0 lesions, % ([4]; 5 mg daily): (61.3) %
- New or enlarging T2 lesions: patients with 1 lesion, % ([4]; 5 mg daily): (9.7) %
- New or enlarging T2 lesions: patients with 2 lesions, % ([4]; 5 mg daily): (12.9) %
- New or enlarging T2 lesions: patients with >=3 lesions, % ([4]; 5 mg daily): (16.1) %
- Total Gd-enhancing T1-hyperintense lesions: patients with 0 lesions, % ([4]; 5 mg daily): (64.5) %
- Total Gd-enhancing T1-hyperintense lesions: patients with 1 lesion, % ([4]; 5 mg daily): (12.9) %
- Total Gd-enhancing T1-hyperintense lesions: patients with 2 lesions, % ([4]; 5 mg daily): (6.5) %
- Total Gd-enhancing T1-hyperintense lesions: patients with >=3 lesions, % ([4]; 5 mg daily): (16.1) %
- New Gd-enhancing T1-hyperintense lesions: patients with 0 lesions, % ([4]; 15 mg daily): (67.7) %
- New Gd-enhancing T1-hyperintense lesions: patients with 1 lesion, % ([4]; 15 mg daily): (16.1) %
- New Gd-enhancing T1-hyperintense lesions: patients with 2 lesions, % ([4]; 15 mg daily): (3.2) %
- New Gd-enhancing T1-hyperintense lesions: patients with >=3 lesions, % ([4]; 15 mg daily): (12.9) %
- New or enlarging T2 lesions: patients with 0 lesions, % ([4]; 15 mg daily): (48.4) %
- New or enlarging T2 lesions: patients with 1 lesion, % ([4]; 15 mg daily): (22.6) %
- New or enlarging T2 lesions: patients with 2 lesions, % ([4]; 15 mg daily): (9.7) %
- New or enlarging T2 lesions: patients with >=3 lesions, % ([4]; 15 mg daily): (19.4) %
- Total Gd-enhancing T1-hyperintense lesions: patients with 0 lesions, % ([4]; 15 mg daily): (64.5) %
- Total Gd-enhancing T1-hyperintense lesions: patients with 1 lesion, % ([4]; 15 mg daily): (19.4) %
- Total Gd-enhancing T1-hyperintense lesions: patients with >=3 lesions, % ([4]; 15 mg daily): (16.1) %
- New Gd-enhancing T1-hyperintense lesions: patients with 0 lesions, % ([4]; 30 mg daily): (81.8) %
- New Gd-enhancing T1-hyperintense lesions: patients with 1 lesion, % ([4]; 30 mg daily): (12.1) %
- New Gd-enhancing T1-hyperintense lesions: patients with 2 lesions, % ([4]; 30 mg daily): (3.0) %
- New Gd-enhancing T1-hyperintense lesions: patients with >=3 lesions, % ([4]; 30 mg daily): (3.0) %
- New or enlarging T2 lesions: patients with 0 lesions, % ([4]; 30 mg daily): (72.7) %
- New or enlarging T2 lesions: patients with 1 lesion, % ([4]; 30 mg daily): (15.2) %
- New or enlarging T2 lesions: patients with 2 lesions, % ([4]; 30 mg daily): (3.0) %
- New or enlarging T2 lesions: patients with >=3 lesions, % ([4]; 30 mg daily): (9.1) %
- Total Gd-enhancing T1-hyperintense lesions: patients with 0 lesions, % ([4]; 30 mg daily): (75.8) %
- Total Gd-enhancing T1-hyperintense lesions: patients with 1 lesion, % ([4]; 30 mg daily): (12.1) %
- Total Gd-enhancing T1-hyperintense lesions: patients with 2 lesions, % ([4]; 30 mg daily): (6.1) %
- Total Gd-enhancing T1-hyperintense lesions: patients with >=3 lesions, % ([4]; 30 mg daily): (6.1) %
- New Gd-enhancing T1-hyperintense lesions: patients with 0 lesions, % ([4]; 60 mg daily): (90.3) %
- New Gd-enhancing T1-hyperintense lesions: patients with 1 lesion, % ([4]; 60 mg daily): (6.5) %
- New Gd-enhancing T1-hyperintense lesions: patients with 2 lesions, % ([4]; 60 mg daily): (3.2) %
- New or enlarging T2 lesions: patients with 0 lesions, % ([4]; 60 mg daily): (87.1) %
- New or enlarging T2 lesions: patients with 1 lesion, % ([4]; 60 mg daily): (3.2) %
- New or enlarging T2 lesions: patients with 2 lesions, % ([4]; 60 mg daily): (9.7) %
- Total Gd-enhancing T1-hyperintense lesions: patients with 0 lesions, % ([4]; 60 mg daily): (87.1) %
- Total Gd-enhancing T1-hyperintense lesions: patients with 1 lesion, % ([4]; 60 mg daily): (3.2) %
- Total Gd-enhancing T1-hyperintense lesions: patients with 2 lesions, % ([4]; 60 mg daily): (6.5) %
- Total Gd-enhancing T1-hyperintense lesions: patients with >=3 lesions, % ([4]; 60 mg daily): (3.2) %
- dose-response relationship, reduction in number of new active Gd-enhancing T1-hyperintense brain lesions ([4]; 5-60 mg once daily, 12 weeks): demonstrating a dose-response relationship
- new Gd-enhancing T1-hyperintense lesions in patients with higher AUC ([4]; patients with higher exposure): very few or no new Gd-enhancing T1-hyperintense lesions
- CYP2C8 metabolism (CYP2C8): substrate
- CYP3A metabolism (CYP3A): substrate
